According to ChEMBL document CHEMBL1124209, “Phosphonoformate and phosphonoacetate derivatives of 5-substituted 2'-deoxyuridines: synthesis and antiviral activity” (1988):
In brackets after ≈: the same amount, converted by molar mass.

Key:
Type in all cases: functional
Human alphaherpesvirus 1 [1] = test: Cumulative mortality in percent of HSV-1 infected mice, after intraperitoneal administration of 0.5 mg/kg of compound
Human alphaherpesvirus 1 [2] = test: Cumulative mortality in percent of HSV-1 infected mice, after intraperitoneal administration of 1 mg/kg of compound
Human alphaherpesvirus 1 [3] = test: Mean survival time in HSV-1 infected mice, after intraperitoneal administration of 0.5 mg/kg of compound
Human alphaherpesvirus 1 [4] = test: Cumulative mortality in percent of HSV-1 infected mice, after peroral administration of 10 mg/kg of compound; settings: route oral
Oryctolagus cuniculus = species on record: Oryctolagus cuniculus; test: Minimum cytotoxic concentration causing toxic effects on uninfected cells in rabbit
Human alphaherpesvirus 1 [5] = test: Mean survival time in HSV-1 infected mice, after intraperitoneal administration of 1 mg/kg of compound
Human alphaherpesvirus 1 [6] = test: Minimum inhibitory concentration causing 25% inhibition of cytopathic effect induced by herpes simplex virus (HSV)-1 (K979) in vero cells.
Human alphaherpesvirus 1 [7] = test: Mean survival time in HSV-1 infected mice, after peroral administration of 5 mg/kg of compound; settings: route oral
Human alphaherpesvirus 1 [8] = test: Minimum inhibitory concentration causing 25% inhibition of cytopathic effect induced by Herpes simplex virus-1 (Brand) in vero cells
Human alphaherpesvirus 1 [9] = test: Minimum inhibitory concentration causing 25% inhibition of cytopathic effect induced by Herpes simplex virus-1 (K979) in HEp-2 cells
Human alphaherpesvirus 1 [10] = test: Cumulative mortality in percent of HSV-1 infected mice, after intraperitoneal administration of 5 mg/kg of compound
Human alphaherpesvirus 1 [11] = test: Cumulative mortality in percent of HSV-1 infected mice, after peroral administration of 5 mg/kg of compound; settings: route oral
Human alphaherpesvirus 1 [12] = test: Mean survival time in HSV-1 infected mice, after intraperitoneal administration of 5 mg/kg of compound
Human alphaherpesvirus 1 [13] = test: Cumulative mortality in percent of HSV-1 infected mice, after peroral administration of 1 mg/kg of compound; settings: route oral
Human alphaherpesvirus 1 [14] = test: Mean survival time in HSV-1 infected mice, after peroral administration of 1 mg/kg of compound; settings: route oral
Human alphaherpesvirus 1 [15] = test: Mean survival time in HSV-1 infected mice, after peroral administration of 10 mg/kg of compound; settings: route oral
Human alphaherpesvirus 1 [16] = test: Minimum inhibitory concentration causing 25% inhibition cytopathic effect induced by Herpes simplex virus-1 (Brand) in HEp-2 cells
Human alphaherpesvirus 2 [17] = test: Minimum inhibitory concentration causing 25% inhibition of cytopathic effect induced by Herpes simplex virus(HSV) -2 (thymidine kinase deficient) in HEp-2 cells
Human alphaherpesvirus 2 [18] = test: Minimum inhibitory concentration causing 25% inhibition cytopathic effect induced by Herpes simplex virus(HSV) -2 (thymidine kinase deficient) in vero cells
Human alphaherpesvirus 1 [19] = test: Minimum inhibitory concentration causing 25% inhibition of cytopathic effect induced by Herpes simplex virus(HSV) -1 (thymidine kinase deficient) in HEp-2 cells
Human alphaherpesvirus 1 [20] = test: Minimum inhibitory concentration causing 25% inhibition of cytopathic effect induced by Herpes simplex virus(HSV) -1 (thymidine kinase deficient) in vero cells
Mus musculus [21] = test: Mean duration of lesions in HSV-1 infected mice, after administration of 0.1 % of compound intracutaneously
Mus musculus [22] = test: Cumulative lesions in HSV-1 infected mice, after administration of 0.1 % of compound intracutaneously
Human alphaherpesvirus 2 [23] = test: Minimum inhibitory concentration causing 25% inhibition of cytopathic effect induced by Herpes simplex virus(HSV) -2 (thymidine kinase deficient) in vero cells

SMILES | CMP (Human alphaherpesvirus 1 [1]) | CMP (Human alphaherpesvirus 1 [2]) | MST (Human alphaherpesvirus 1 [3]) | CMP (Human alphaherpesvirus 1 [4]) | MTC (Oryctolagus cuniculus) | MST (Human alphaherpesvirus 1 [5]) | MIC (Human alphaherpesvirus 1 [6]) | MST (Human alphaherpesvirus 1 [7]) | MIC (Human alphaherpesvirus 1 [8]) | MIC (Human alphaherpesvirus 1 [9]) | CMP (Human alphaherpesvirus 1 [10]) | CMP (Human alphaherpesvirus 1 [11]) | MST (Human alphaherpesvirus 1 [12]) | CMP (Human alphaherpesvirus 1 [13]) | MST (Human alphaherpesvirus 1 [14]) | MST (Human alphaherpesvirus 1 [15]) | MIC (Human alphaherpesvirus 1 [16]) | MIC (Human alphaherpesvirus 2 [17]) | MIC (Human alphaherpesvirus 1 [19]) | MIC (Human alphaherpesvirus 1 [20]) | other results
CCOC(=O)CP(=O)(O)OC[C@H]1O[C@@H](n2cc(CCCl)c(=O)[nH]c2=O)C[C@@H]1O | 75 | 83 | 12.2 days | 42 | 749 µM | 11.3 days | > 227 µM | 13.6 days | > 227 µM | > 227 µM | 42 | 58 | 15.5 days | 83 | 11.9 days | 15.9 days | > 227 µM |  |  |  | 
CCOC(=O)CP(=O)(OC)OC[C@H]1O[C@@H](n2ccc(=O)[nH]c2=O)C[C@@H]1O (stereo not given in full) |  |  |  |  | >=842 uM |  | > 255 µM |  | > 255 µM | > 255 µM |  |  |  |  |  |  | > 255 µM |  |  |  | 
COP(=O)(CC(=O)OC[C@H]1O[C@@H](n2cc(C)c(=O)[nH]c2=O)C[C@@H]1O)OC |  |  |  |  | >=842 uM |  | > 255 µM |  | > 255 µM | > 255 µM |  |  |  |  |  |  | > 255 µM |  |  |  | 
COP(=O)(CC(=O)OC[C@H]1O[C@@H](n2cc(CCCl)c(=O)[nH]c2=O)C[C@@H]1O)OC | 67 | 75 | 13.3 days | 75 | 749 µM | 13 days | > 227 µM | 11.2 days | 6.8 µM (≈ 3 µg/mL) | > 227 µM | 8 | 83 | 19.2 days | 58 | 13.5 days | 12.2 days | 6.8 µM (≈ 3 µg/mL) | > 227 µM | > 227 µM | 227 µM (≈ 100 µg/mL) | MIC (Human alphaherpesvirus 2 [18]): > 227 µM
CCOC(=O)P(=O)(O)O[C@H]1C[C@H](n2cc(CCCl)c(=O)[nH]c2=O)O[C@@H]1CO | 83 | 42 | 11.5 days | 75 | >=773 uM | 15.6 days | > 234 µM | 11.9 days | 234 µM (≈ 99.9 µg/mL) | > 234 µM | 8 | 75 | 18.9 days | 83 | 11.3 days | 11.8 days | > 234 µM |  |  |  | MDL (Mus musculus [21]): 9.7 days; lesions (Mus musculus [22]): 90
COC(=O)P(=O)(O)O[C@H]1C[C@H](n2cc(CCCl)c(=O)[nH]c2=O)O[C@@H]1CO |  |  |  |  | >=800 uM |  | > 242 µM |  | > 242 µM | > 242 µM |  |  |  |  |  |  | > 242 µM |  |  |  | 
O=C(OCc1ccccc1)P(=O)(O)OC[C@H]1O[C@@H](n2cc(CCCl)c(=O)[nH]c2=O)C[C@@H]1O | 67 | 33 | 13.8 days | 33 | 675 µM | 16.3 days | > 205 µM | 14.3 days | 20.5 µM (≈ 10 µg/mL) | > 205 µM | 8 | 50 | 19.3 days | 67 | 12.7 days | 16.8 days | 20.5 µM (≈ 10 µg/mL) | > 205 µM | > 205 µM | 20.5 µM (≈ 10 µg/mL) | MIC (Human alphaherpesvirus 2 [23]): 205 µM (≈ 100 µg/mL); MDL (Mus musculus [21]): 8.1 days; lesions (Mus musculus [22]): 100
CCOC(=O)P(=O)(O)OC[C@H]1O[C@@H](n2cc(CCCl)c(=O)[nH]c2=O)C[C@@H]1O | 58 | 33 | 13.8 days | 50 | >=773 uM | 16.5 days | > 234 µM | 11.9 days | 23.4 µM (≈ 9.99 µg/mL) | 234 µM (≈ 99.9 µg/mL) | 0 | 75 | 20 days | 92 | 10.1 days | 15.3 days | 23.4 µM (≈ 9.99 µg/mL) | > 234 µM | > 234 µM | 70.3 µM (≈ 30 µg/mL) | MIC (Human alphaherpesvirus 2 [23]): 234 µM (≈ 99.9 µg/mL); MDL (Mus musculus [21]): 6.7 days; lesions (Mus musculus [22]): 80
O=C(O)CP(=O)(O)OC[C@H]1O[C@@H](n2cc(CCCl)c(=O)[nH]c2=O)C[C@@H]1O | 50 | 58 | 14.2 days | 50 | 766 µM | 14.1 days | 232 µM (≈ 95.8 µg/mL) | 11.2 days | 2.3 µM (≈ 0.949 µg/mL) | 69.6 µM (≈ 28.7 µg/mL) | 25 | 92 | 17.3 days | 100 | 8.6 days | 15.3 days | 2.3 µM (≈ 0.949 µg/mL) | 232 µM (≈ 95.8 µg/mL) | 23.2 µM (≈ 9.58 µg/mL) | 23.2 µM (≈ 9.58 µg/mL) | MIC (Human alphaherpesvirus 2 [18]): > 232 µM; MDL (Mus musculus [21]): 5.3 days; lesions (Mus musculus [22]): 60
CC(C)(C)OC(=O)CP(=O)(O)OC[C@H]1O[C@@H](n2cc(CCCl)c(=O)[nH]c2=O)C[C@@H]1O | 67 | 67 | 12.9 days | 58 | >=704 uM | 12.8 days | > 213 µM | 11.3 days | > 213 µM | > 213 µM | 50 | 83 | 15.4 days | 83 | 11.5 days | 13.3 days | > 213 µM |  |  |  | 
COC(=O)P(=O)(O)OC[C@H]1O[C@@H](n2cc(CCCl)c(=O)[nH]c2=O)C[C@@H]1O | 75 | 58 | 11.8 days | 75 | >=800 uM | 14.1 days | > 242 µM | 12.7 days | 24.2 µM (≈ 9.99 µg/mL) | 242 µM (≈ 99.9 µg/mL) | 33 | 67 | 16.3 days | 75 | 12.6 days | 13.7 days | 24.2 µM (≈ 9.99 µg/mL) | > 242 µM | > 242 µM | 242 µM (≈ 99.9 µg/mL) | MIC (Human alphaherpesvirus 2 [23]): > 242 µM
CCOC(=O)CP(=O)(O)O[C@H]1C[C@H](n2cc(CCCl)c(=O)[nH]c2=O)O[C@@H]1CO |  |  |  |  | 749 µM |  | > 227 µM |  | > 227 µM | > 227 µM |  |  |  |  |  |  | > 227 µM |  |  |  | MDL (Mus musculus [21]): 9.4 days; lesions (Mus musculus [22]): 80
COP(=O)(CC(=O)O[C@H]1C[C@H](n2cc(CCCl)c(=O)[nH]c2=O)O[C@@H]1CO)OC |  |  |  |  | 227 µM |  | 22.7 µM (≈ 10 µg/mL) |  | 0.7 µM (≈ 0.309 µg/mL) | 6.8 µM (≈ 3 µg/mL) |  |  |  |  |  |  | 68.1 µM (≈ 30 µg/mL) | > 227 µM | > 227 µM | 227 µM (≈ 100 µg/mL) | MIC (Human alphaherpesvirus 2 [23]): 227 µM (≈ 100 µg/mL)
CCOC(=O)P(=O)(Nc1ccccc1)OC[C@H]1O[C@@H](n2cc(CCCl)c(=O)[nH]c2=O)C[C@@H]1O (stereo not given in full) | 75 | 67 | 13.1 days | 25 | 658 µM | 13.9 days | > 199 µM | 15.4 days | 2 µM (≈ 1 µg/mL) | 59.8 µM (≈ 30 µg/mL) | 25 | 50 | 18 days | 100 | 11.4 days | 17.8 days | 2 µM (≈ 1 µg/mL) | > 199 µM | > 199 µM | 59.8 µM (≈ 30 µg/mL) | MIC (Human alphaherpesvirus 2 [23]): 199 µM (≈ 99.9 µg/mL)
O=C(CP(=O)(O)O)O[C@H]1C[C@H](n2cc(CCCl)c(=O)[nH]c2=O)O[C@@H]1CO |  |  |  |  | 800 µM |  | 242 µM (≈ 99.9 µg/mL) |  | 24.2 µM (≈ 9.99 µg/mL) | 72.7 µM (≈ 30 µg/mL) |  |  |  |  |  |  | 72.7 µM (≈ 30 µg/mL) | > 242 µM | > 242 µM | 242 µM (≈ 99.9 µg/mL) | MIC (Human alphaherpesvirus 2 [18]): > 242 µM
CCOC(=O)CP(=O)(OC)OC[C@H]1O[C@@H](n2cc(C)c(=O)[nH]c2=O)C[C@@H]1O (stereo not given in full) |  |  |  |  | >=812 uM |  | > 246 µM |  | > 246 µM | > 246 µM |  |  |  |  |  |  | > 246 µM |  |  |  | 
CCOC(=O)P(=O)(OC)OC[C@H]1O[C@@H](n2cc(C)c(=O)[nH]c2=O)C[C@@H]1O (stereo not given in full) |  |  |  |  | >=842 uM |  | > 255 µM |  | > 255 µM | > 255 µM |  |  |  |  |  |  | > 255 µM |  |  |  | 
CCOC(=O)P(=O)(OC)OC[C@H]1O[C@@H](n2ccc(=O)[nH]c2=O)C[C@@H]1O (stereo not given in full) |  |  |  |  | >=872 uM |  | > 264 µM |  | > 264 µM | > 264 µM |  |  |  |  |  |  | > 264 µM |  |  |  | 
